Source: patent US20230391739A1, “ARYL DERIVATIVES FOR TREATING TRPM3 MEDIATED DISORDERS” (Katholieke Universiteit Leuven, priority 2020, published 2023)

What follows are compounds tested against T1, mouse TRPM3α2 (mTRPM3) ion channel (Mus musculus, UniProt J9SQF3) (assay: TRPM3 ion channel driven Ca2+ uptake, Fluo-4 AM assay, PS-stimulated (mTRPM3)). Conditions: TRPM3 overexpressing flip-in HEK293 cells stimulated with Pregnenolone sulfate (PS) 50 μM, activity ranges A, B, C.
T1 construct: expressed in transfected cells; host or cells: flip-in HEK293
Type: cell-based
Procedure, shortened: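 Ca²⁺ influx through mouse TRPM3α2, opened by 50 μM pregnenolone sulfate, was tracked with Fluo-4 AM in stably transfected HEK293 cells read directly after seeding onto pre-dispensed compound.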

T1 sequence (J9SQF3 1-1709 isoform J9SQF3-12): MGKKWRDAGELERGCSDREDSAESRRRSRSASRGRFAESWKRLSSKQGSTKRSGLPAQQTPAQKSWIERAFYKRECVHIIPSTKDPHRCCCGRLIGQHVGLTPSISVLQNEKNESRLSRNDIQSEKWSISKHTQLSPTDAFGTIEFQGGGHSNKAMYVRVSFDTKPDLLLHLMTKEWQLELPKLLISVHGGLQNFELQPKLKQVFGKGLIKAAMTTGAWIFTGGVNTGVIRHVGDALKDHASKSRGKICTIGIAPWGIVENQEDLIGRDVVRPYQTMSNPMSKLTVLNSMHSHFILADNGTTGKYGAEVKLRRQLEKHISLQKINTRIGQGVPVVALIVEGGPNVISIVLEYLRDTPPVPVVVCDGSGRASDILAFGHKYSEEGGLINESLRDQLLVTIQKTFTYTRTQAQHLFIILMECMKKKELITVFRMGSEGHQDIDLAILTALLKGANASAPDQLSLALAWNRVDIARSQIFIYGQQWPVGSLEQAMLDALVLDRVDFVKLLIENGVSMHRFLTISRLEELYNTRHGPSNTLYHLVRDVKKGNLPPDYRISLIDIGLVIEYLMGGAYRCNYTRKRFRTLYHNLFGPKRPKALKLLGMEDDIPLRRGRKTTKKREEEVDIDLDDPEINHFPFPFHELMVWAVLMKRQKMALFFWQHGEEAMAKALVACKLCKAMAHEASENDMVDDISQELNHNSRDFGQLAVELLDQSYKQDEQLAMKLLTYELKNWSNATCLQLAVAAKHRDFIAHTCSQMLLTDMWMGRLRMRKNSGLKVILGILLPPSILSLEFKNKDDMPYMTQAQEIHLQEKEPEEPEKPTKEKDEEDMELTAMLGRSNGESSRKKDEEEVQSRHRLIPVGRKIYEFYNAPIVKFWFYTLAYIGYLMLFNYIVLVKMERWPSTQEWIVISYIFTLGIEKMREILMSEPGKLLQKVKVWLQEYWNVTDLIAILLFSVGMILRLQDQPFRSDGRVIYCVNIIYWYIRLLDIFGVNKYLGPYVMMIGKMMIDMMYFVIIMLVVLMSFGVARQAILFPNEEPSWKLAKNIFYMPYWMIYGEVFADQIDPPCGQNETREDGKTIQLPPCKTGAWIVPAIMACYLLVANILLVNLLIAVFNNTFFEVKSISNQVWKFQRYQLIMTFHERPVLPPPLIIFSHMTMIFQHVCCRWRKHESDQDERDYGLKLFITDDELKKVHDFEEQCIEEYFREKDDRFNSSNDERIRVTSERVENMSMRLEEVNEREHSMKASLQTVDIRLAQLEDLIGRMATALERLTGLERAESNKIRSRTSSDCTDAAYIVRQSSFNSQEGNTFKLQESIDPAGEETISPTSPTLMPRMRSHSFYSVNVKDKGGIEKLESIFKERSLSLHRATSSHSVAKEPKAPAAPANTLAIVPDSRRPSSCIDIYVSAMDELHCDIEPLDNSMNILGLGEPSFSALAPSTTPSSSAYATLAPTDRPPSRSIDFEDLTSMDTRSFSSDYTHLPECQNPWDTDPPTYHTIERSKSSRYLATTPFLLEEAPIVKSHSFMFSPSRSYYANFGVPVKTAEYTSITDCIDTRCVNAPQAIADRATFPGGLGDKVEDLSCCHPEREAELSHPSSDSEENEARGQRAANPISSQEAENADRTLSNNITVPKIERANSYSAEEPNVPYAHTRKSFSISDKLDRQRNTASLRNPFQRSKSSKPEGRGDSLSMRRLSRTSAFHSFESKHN

Row | Structure (SMILES) | IC50 [nM]
1 | Cc1oc2ccc(OCc3ccccc3)cc2c1C(=O)NCCc1ccccc1 [Cpd 134, 5-(benzyloxy)-2-methyl-N-phenethylbenzofuran-3-carboxamide] | > 20000
2 | Cc1oc2ccc(OCc3cccc(F)c3F)cc2c1C(=O)N[C@H]1CCNC1 [Cpd 135, (S)-5-((2,3-difluorobenzyl)oxy)-2-methyl-N-(pyrrolidin-3-yl)benzofuran-3-carboxamide] | < 1000
3 | Cc1oc2ccc(OCc3c(F)cccc3F)cc2c1C(=O)N[C@H]1CCNC1 [Cpd 136, (S)-5-((2,6-difluorobenzyl)oxy)-2-methyl-N-(pyrrolidin-3-yl)benzofuran-3-carboxamide] | < 1000
4 | Cc1oc2ccc(OCc3ccccc3)cc2c1C(=O)NC1CNCC1(F)F (centres unmarked) [Cpd 137, 5-(benzyloxy)-N-(4,4-difluoropyrrolidin-3-yl)-2-methylbenzofuran-3-carboxamide] | < 1000
5 | Cc1oc2ccc(OCc3ccccc3)cc2c1C(=O)NCCc1ccccn1 [Cpd 138, 5-(benzyloxy)-2-methyl-N-(2-(pyridin-2-yl)ethyl)benzofuran-3-carboxamide] | 1000 to 20000
6 | Cc1oc2ccc(OCc3ccccc3)cc2c1C(=O)NCCc1ccncc1 [Cpd 139, 5-(benzyloxy)-2-methyl-N-(2-(pyridin-4-yl)ethyl)benzofuran-3-carboxamide] | 1000 to 20000
7 | Cc1oc2ccc(OCc3ccccc3)cc2c1C(=O)N[C@@H]1C[C@H]2CNC[C@H]2C1 [Cpd 140, 5-(benzyloxy)-2-methyl-N-(trans-octahydrocyclopenta[c]pyrrol-5-yl)benzofuran-3-carboxamide] | < 1000
8 | Cc1oc2ccc(OCc3ccccc3)cc2c1C(=O)NC1CN2CCC1CC2 (centres unmarked) [Cpd 142, 5-(benzyloxy)-2-methyl-N-(quinuclidin-3-yl)benzofuran-3-carboxamide] | < 1000
9 | Cc1oc2ccc(OCc3ccccc3)cc2c1C(=O)N[C@H]1C[C@H]2CC[C@@H](C1)N2 [Cpd 143, 5-(benzyloxy)-N-((1R,3r,5S)-8-azabicyclo[3.2.1]octan-3-yl)-2-methylbenzofuran-3-carboxamide] | < 1000
10 | Cc1oc2ccc(OCc3ccccc3)cc2c1C(=O)NC1CCN2CCCC12 (centres unmarked) [Cpd 144, 5-(benzyloxy)-N-(hexahydro-1H-pyrrolizin-1-yl)-2-methylbenzofuran-3-carboxamide] | < 1000
11 | CC(=O)N1CC[C@H](NC(=O)c2c(C)oc3ccc(OCc4ccccc4)cc23)C1 [Cpd 145, (S)—N-(1-acetylpyrrolidin-3-yl)-5-(benzyloxy)-2-methylbenzofuran-3-carboxamide] | 1000 to 20000
12 | Cc1oc2ccc(OCc3ccccc3)cc2c1C(=O)NC1CCN(C)C(=O)C1 (centres unmarked) [Cpd 146, 5-(benzyloxy)-2-methyl-N-(1-methyl-2-oxopiperidin-4-yl)benzofuran-3-carboxamide] | 1000 to 20000
13 | CCN1CCC(NC(=O)c2c(C)oc3ccc(OCc4ccccc4)cc23)C1=O (centres unmarked) [Cpd 147, 5-(benzyloxy)-N-(1-ethyl-2-oxopyrrolidin-3-yl)-2-methylbenzofuran-3-carboxamide] | < 1000
14 | Cc1oc2ccc(OCc3ccccc3)cc2c1C(=O)NC1CN(C2COC2)C1 [Cpd 148, 5-(benzyloxy)-2-methyl-N-(1-(oxetan-3-yl)azetidin-3-yl)benzofuran-3-carboxamide] | < 1000
15 | CCN1CCCN(C(=O)c2c(C)oc3ccc(OCc4ccccc4)cc23)CC1 [Cpd 149, (5-(benzyloxy)-2-methylbenzofuran-3-yl)(4-ethyl-1,4-diazepan-1-yl)methanone] | > 20000
16 | Cc1oc2ccc(OCc3ccccc3)cc2c1C(=O)N1CCCC(N(C)C)C1 (centres unmarked) [Cpd 150, (5-(benzyloxy)-2-methylbenzofuran-3-yl)(3-(dimethylamino)piperidin-1-yl)methanone] | > 20000
17 | CCN1CCC(NC(=O)c2c(C)oc3ccc(OCc4ccccc4)cc23)CC1 [Cpd 151, 5-(benzyloxy)-N-(1-ethylpiperidin-4-yl)-2-methylbenzofuran-3-carboxamide] | < 1000
